# Measurements reported in patent US9075071B1, “Methods for diagnosis and treatment of cancer” (University of Mississippi Medical Center, priority 2012, dated 2015).
# Where a name gives a salt, the structure may show the parent alone. Peptide text beside a SMILES is read from it. * marks the point of attachment. Cbz = O=C(OCc1ccccc1)*
# Columns and labels:
# SCID mice = settings: mouse, in vivo
# Description: Geminin overexpressing cells were injected subcutaneously or orthotopically (in mammary gland) in SCID mice as described above. When tumors reached 0.5-0.75 cm^3 in volume the treatments were initiated. […] Mice were treated for 5 days and were rested for 2 days and tumor size was measured daily using calipers. At the end of the experiments tumors were dissected out, weighed and fixed in formalin, and cut at 4 μm for histological and immunohistochemical analysis.
# leukemia cells = settings: cited from earlier work
# [1] = tested on: induced Gem9 cells (geminin overexpressing); assay: Metaphase chromosome spread, chromosome condensation; type: cell-based, human
# Description: (§1) […] Cells were then trypsinized and washed and gently resuspended in PBS. 10 ml of 0.075M KCl was drop wise added and the cells were incubated at 37° C. (in a water bath) for 5-10 mins. Cells were then centrifuged at 900 rpm for 5 minutes and KCl was removed. 5 ml of freshly prepared fixative (3:1 Methanol/Acetic acid) was added drop wise to the cells and carefully mixed. Cells were centrifuged at 900 rpm for 5 minutes and the fixative was removed. This step was repeated 2 more times. Finally, all but 300 μl of the fixative media was removed and cells were dropped from approximately 18 inches onto an angled, humidified microscope slide. Slides were air-dry for at least 10 mins and cells were stained with propidium iodide (PI) or Giemsa.
# uninduced Gem9 cells = assay: as above; type: cell-based, human; settings: 10 μM colcemid 1 h
# Description: as §1
# geminin protein = assay: Geminin level by western blot of sonicated extracts; type: cell-based, human
# Description: To study the consequence of silencing or inactivating c-Abl on geminin overexpressing cells, experiments were first undertaken to analyze what happens to geminin protein following c-Abl silencing or inactivation. […] Another Dox treated set of cells were transfected with c-Abl dominant negative construct (i.e. K209R, see Srinivasan and Plattner, 2006) during the last 48 h. Sonicated extracts were then prepared from all cultures and geminin level was measured using western blot analysis. […] Similar effects were also observed in cells endogenously overexpressing geminin.
# [2] = tested on: induced Gem9 (Gem9+Dox) cells; assay: Cell survival, PI/annexin V labeling and FACS; type: cell-based, human; settings: Gem9 induced 72 h, then drug 24 h; ZM447439 5 μM, Nocodazole 250 ng/ml
# Description: (§2) Breast cancer cell lines were maintained in RPMI medium (Invitrogen, Carlsbad, Calif.) supplemented with 10% FBS and antibiotics. Maintenance of HME cells was performed as described previously. Cells were treated with 5 μM […] (Toronto Research Chemicals Inc., North York, ON), 100 ng/ml colcemid (Sigma, St. Louis, Mo.), 250 ng/ml Nocodazole (Sigma), 10 μM Taxol (Sigma). PI or FITC-conjugated anti-BrdU FACS analysis was performed as in [20]. Annexin-V was performed according to manufacturer's instructions (BD Biosciences, 556547, San Jose, Calif.).
# (§3) To measure the effect on ZM447439 on cell survival, aliquots from each culture were labeled with PI/annexin V and analyzed by FACS. […] Indeed, in ZM447439 treated cells only 40±5% of the cells were PI^−/V^−, and 41±7% were PI^+/V^− and 20±6% were PI^−/V^++PI^+/V (FIG. 9B). […] Indeed, in ZM447439 treated cells 66±4% of the cells were PI^−/V^−, 24±3% were PI^+/V^− and 10±3% were PI^−/V^++PI^+/V^+ (FIG. 9E).
# [3] = tested on: uninduced Gem9 (Gem9-Dox, HME) cells; assay: Cell survival, PI/annexin V labeling and FACS; type: cell-based, human; settings: 24 h, ZM447439 5 μM, Nocodazole 250 ng/ml
# Description: as §2, §3
# HME cells = assay: Cell cycle progression, PI labeling and FACS; type: cell-based, human; settings: for effect on cell cycle progression: normal HME cells, 24 h, vs DMSO, ZM447439 5 μM, Nocodazole 250 ng/ml, Taxol 10 μM
# Description: as §2
# (§4) To evaluate that in detail, HME (or Gem9−Dox) and induced (72 h) Gem9 cells were incubated with 5 μM of ZM447439 (a specific and potent inhibitor of AurB) for an additional 24 h. To measure the effect of ZM447439 on cell cycle progression aliquots from each culture were labeled with PI and analyzed by FACS.
# (§5) To evaluate whether these effects were restricted to AurB inhibitors or could be seen with drugs that alter the integrity of the microtubules apparatus as well, HME and induced Gem9 cells were treated with DMSO (control), Nocodazole (a microtubules depolymerizing agent) or Taxol (a microtubules stabilizing agent) for another 24 h. […] However, both treatments also had modest effect on geminin overexpression cells (FIGS. 9C and 9D).
# (§6) Low number of dying cells was detected in parental or Gem9 cells in the absence of Dox (FIGS. 13E/1 and 13E/5, 13F/1 and 13F/5 and 13G) or in HME cells in the presence of Dox (FIGS. 13E/2 and 13E/6, 13F/2 and 13F/6 and 13G). […] It was thought that degradation of geminin following c-Abl silencing or inactivation promoted cell death in geminin overexpressing and not normal cells, at least in part, because cells became addicted to high levels of geminin.
# [4] = tested on: induced Gem9 cells (geminin overexpressing HME cells); assay: Cell cycle progression, PI labeling and FACS; type: cell-based, human; settings: Gem9 induced 72 h; for effect on cell cycle progression: then drug 24 h, vs DMSO, ZM447439 5 μM, Nocodazole 250 ng/ml, Taxol 10 μM
# Description: as §2, §4, §5, §6
# induced Gem9 cells [5] = assay: Dying cells under light microscope and TUNEL; type: cell-based, human; settings: Gem9 induced 96 h; imatinib 10 μM last 48 h, c-Abl silencing 96 h
# Description: (§7) The Fluorescein FragEL™ DNA Fragmentation Detection kit (Calbiochem) was used according to the supplier's protocol.
# as §6
# parental HME cells = assay: Dying cells under light microscope and TUNEL; type: cell-based, human; settings: imatinib 10 μM last 48 h, c-Abl siRNA 96 h
# Description: as §7, §6
# Gem9/LT mammary tumors = assay: Treatment of orthotopic (mammary) geminin-driven tumors in SCID mice; type: in vivo, mouse
# Description: (§8) All animal experiments were approved by the University of Hawaii IACUC committee and University of Mississippi Medical Center IACUC committee. Six- to eight-week-old anaesthetized immune-compromised athymic SCID (NOD.CB17-Prkdc^scid/J, Jackson Laboratory) mice were injected with human mammary epithelial (HME) cells (5×10^6) resuspended in 200 μl of HME medium/matrigel (1:1) using a 25-gauge needle. Tumor initiation was defined as the time when tumors were 3 mm in diameter. Mice were sacrificed when the tumors grew to greater than 1.5 cm in diameter or after 12 wks of monitoring. Tumor volume was calculated with the formula 4/3πr^3 (where r is the tumor radius). At the end of the experiments tumors were dissected out, weighed and then fixed in formalin, and subsequently cut at 4 μm for histological and immunohistochemical analysis.
# (§9) Tumor formation was analyzed with IVIS luciferase machine (Xenogen, Alameda, Calif.) weekly and tumor size was measured every third day by calipers. To analyze tumor formation using the in vivo system, mice were intraperitoneally injected using a 30G needle with 100 μl of D-luciferin solution (Xenogen) prepared at 15 mg/mL in PBS. […]
# (§10) Geminin overexpressing cells were injected subcutaneously or orthotopically (in mammary gland) in SCID mice as described above. […] Mice were treated for 5 days and were rested for 2 days and tumor size was measured daily using calipers. […]
# [6] = tested on: Gem9/LT subcutaneous tumors; assay: Treatment of subcutaneous geminin-driven tumors in SCID mice; type: in vivo, mouse; settings: imatinib 50 mg/kg/day, day 12
# Description: as §8, §9, §10
# p-(S10)-H3 = assay: FITC-anti-p-H3-(S10) labeling and FACS; type: cell-based, human; settings: imatinib 10 μM 24 h, c-Abl silencing 72 h
# Description: Diminution of (S10)-H3 phosphorylation leads to chromosome condensation failure, lack of chromosome segregation and induction of aneuploidy (Giet et al., 2001). […] Aliquots of each culture were then fixed, labeled with FITC-anti-p-H3-(S10) specific antibody and analyzed by FACS.
# induced Gem9 cells [7] = assay: PI / FITC-anti-BrdU FACS, tetraploid/aneuploid cells; type: cell-based, human; settings: Gem9 induced 72 h (approximately 35% without treatment); imatinib 10 μM last 24 h, c-Abl silencing 72 h
# Description: BrdU (20 μM) was added to all cultures during the last 24 h and cultures were collected, labeled with PI and FITC-anti-BrdU antibody and analyzed by FACS.
compound,measurement,setting,value
COc1cccc2c1C(=O)c1c(O)c3c(c(O)c1C2=O)C[C@@](O)(C(=O)CO)C[C@@H]3O[C@H]1C[C@H](N)[C@H](O)[C@H](C)O1 [doxorubicin],toxicity to the mice,SCID mice,adverse side effects including death
CCN(CCCOc1ccc2c(Nc3cc(CC(=O)Nc4cccc(F)c4)n[nH]3)ncnc2c1)CCOP(=O)(O)O [AZD1152],effect on DNA content of cells,leukemia cells,induce accumulation of cells with greater than 4N DNA content
CN[C@H]1CCc2cc(OC)c(OC)c(OC)c2-c2ccc(OC)c(=O)cc21 [colcemid],chromosome condensation,"[1]; Gem9 with Dox 7 days, 10 μM colcemid 1 h",failed to condense the chromosomes
same,chromosome condensation,uninduced Gem9 cells,induced condensation
CC(C)C[C@@H](C=O)NC(=O)[C@H](CC(C)C)NC(=O)[C@H](CC(C)C)NC(=O)OCc1ccccc1 [MG132] (Cbz-Leu-Leu-Leu-aldehyde),geminin protein level,"geminin protein; HME as well as induced Gem9 (72 h) cells, 10 μM MG132 together with 10 μM imatinib, last 24 h",an increase instead of a decrease
COc1cc2c(Nc3ccc(NC(=O)c4ccccc4)cc3)ncnc2cc1OCCCN1CCOCC1 [ZM447439],alive cells (PI-/V-),[2],66±4%
same,apoptotic cells (PI-/V+ + PI+/V+),[2],10±3%
same,necrotic cells (PI+/V-),[2],24±3%
same,alive cells (PI-/V-),[3],40±5%
same,apoptotic cells (PI-/V+ + PI+/V+),[3],20±6%
same,necrotic cells (PI+/V-),[3],41±7%
same,effect on cell cycle progression,HME cells,triggered accumulation of normal HME cells in G2/M phase followed by tetraploidy and then cell death
same,effect on cell cycle progression,[4],little effect
CC(=O)O[C@H]1C(=O)[C@@]2(C)[C@H]([C@H](OC(=O)c3ccccc3)[C@]3(O)C[C@H](OC(=O)[C@H](O)[C@@H](NC(=O)c4ccccc4)c4ccccc4)C(C)=C1C3(C)C)[C@]1(OC(C)=O)CO[C@@H]1C[C@@H]2O [Taxol],effect on cell cycle progression,HME cells,"triggered accumulation of normal HME cells in G2/M phase, followed by tetraploidy and then cell death"
same,effect on cell cycle progression,[4],modest effect
"Cc1ccc(NC(=O)c2ccc(CN3CCN(C)CC3)cc2)cc1Nc1nccc(-c2cccnc2)n1 [imatinib, imatinib mesylate]","number of dying cells (light microscope, TUNEL+)",induced Gem9 cells [5],high number of dying cells
same,"number of dying cells (light microscope, TUNEL+)",parental HME cells,Low level of dying cells
same,mammary tumor size compared with no treatment,Gem9/LT mammary tumors; imatinib 50 mg/kg/day,5-10 fold
same,killing of geminin-driven tumors (tumor size),"Gem9/LT mammary tumors; start at 0.5 to 0.7 cm^3, imatinib 50 mg/kg/day, doxorubicin 5 mg/kg/day, 14 days",as effective in killing geminin-driven tumors as doxorubicin
same,subcutaneous tumors after treatment,[6],barely detectable
same,effect on cell cycle (PI FACS),"HME cells; HME cells, imatinib 10 μM last 24 h, c-Abl silencing 72 h",induced G1-arrest
same,"effect on cell cycle (PI FACS), sub-G1 and >4N cells","[4]; imatinib 10 μM last 24 h, c-Abl silencing 72 h",induced significant increase in sub-G1 and reduced the level of >4N cells
same,p-(S10)-H3-positive cells,p-(S10)-H3; induced Gem9 cells (approximately 2% without treatment),approximately 13%
same,p-(S10)-H3-positive cells,p-(S10)-H3; parental HME cells,reduced the percentage of p(S10)-H3-positive cells
same,endogenous geminin protein level,"geminin protein; HME cells, Dox 72 h, imatinib 10 μM last 24 h, c-Abl silencing 72 h",Significant reduction
same,geminin protein level,"geminin protein; MCF7 (ER+) breast cancer cells, imatinib 10 μM or c-Abl silencing",significantly reduced the level of geminin protein
same,geminin protein level,"geminin protein; MDAMB231 (ER-) breast cancer cells, imatinib 10 μM or c-Abl silencing",significantly reduced the level of geminin protein
same,overexpressed geminin protein level,"geminin protein; induced Gem9 cells, Dox 72 h, imatinib 10 μM last 24 h, c-Abl silencing 72 h",Significant reduction
same,chromosome condensation,"[1]; Gem9 with Dox 7 days plus colcemid, imatinib 10 μM last 24 h, c-Abl silencing last 72 h",restored chromosome condensation
same,cells with greater than 4N DNA content (tetraploid/aneuploid),induced Gem9 cells [7],approximately 6%
COC(=O)Nc1nc2ccc(C(=O)c3cccs3)cc2[nH]1 [Nocodazole],alive cells (PI-/V-),[2],78±6%
same,apoptotic cells (PI-/V+ + PI+/V+),[2],10±2%
same,necrotic cells (PI+/V-),[2],12±3%
same,alive cells (PI-/V-),[3],75±5%
same,apoptotic cells (PI-/V+ + PI+/V+),[3],20±5%
same,necrotic cells (PI+/V-),[3],6±4%
same,effect on cell cycle progression,HME cells,"triggered accumulation of normal HME cells in G2/M phase, followed by tetraploidy and then cell death"
same,effect on cell cycle progression,[4],modest effect
